Where a name gives a salt, the structure may show the parent alone. Read-outs that look alike come from different tables or passages of the source.
Assays:
Type in all cases: biochemical
Serotonin (5-HT) uptake = target: T1, Serotonin (5-HT) uptake (Rattus norvegicus, UniProt P31652); assay: Serotonin (5-HT) uptake inhibitory activity using rat brain synaptosome (frontal cortex); settings: tritium-labeled 5-HT 8 nM, 37° C. 10 minutes
T1 construct: The suspension was used as a crude synaptosome fraction; from tissue; host or cells: rat (male Wistar) frontal cortex, crude synaptosome fraction
Protocol: Measurement of Serotonin (5-HT) Uptake Inhibitory Activity of Test Compound Using Rat Brain Synaptosome
(§1) Male Wistar rats were decapitated, and their brains were removed and dissected to remove the frontal cortex. The separated frontal cortex was placed in a 20-fold weight of a 0.32 molarity (M) sucrose solution and homogenized with a potter homogenizer. The homogenate was centrifuged at 1000 g at 4° C. for 10 minutes, and the supernatant was further centrifuged at 20000 g at 4° C. for 20 minutes. […] The suspension was used as a crude synaptosome fraction.
(§2) Uptake reaction was performed using each well of a 96-well round-bottom plate and a 200 μl volume in total of a solution containing pargyline (final concentration: 10 μM) and ascorbic acid (final concentration: 0.2 mg/ml).
(§3) Specifically, a solvent, unlabeled 5-HT, and serially diluted test compounds were separately added to the wells, and the synaptosome fraction was added in an amount 1/10 of the final volume to each well and preincubated at 37° C. for 10 minutes. Then, a tritium-labeled 5-HT solution (final concentration: 8 nM) was added thereto to initiate uptake reaction at 37° C. 10 minutes later, the uptake reaction was terminated by suction filtration through a 96-well glass fiber filter plate. Furthermore, the filter was washed with a cold saline and then sufficiently dried. MicroScint-O (PerkinElmer Co., Ltd.) was added thereto, and the residual radioactivity on the filter was measured.
(§4) An uptake value obtained by the addition of only the solvent was defined as 100%, and an uptake value (nonspecific uptake value) obtained by the addition of the unlabeled 5-HT (final concentration: 10 μM) was defined as 0%. A 50%, inhibitory concentration was calculated from the test compound concentrations and inhibitory activities thereat.

[1] = target: Norepinephrine (NE) uptake (Rattus norvegicus, UniProt Q9WTR4); assay: Norepinephrine (NE) uptake inhibitory activity using rat brain synaptosome (hippocampus)
Protocol: Measurement of Norepinephrine (NE) Uptake Inhibitory Activity of Test Compound Using Rat Brain Synaptosome
Male Wistar rats were decapitated, and their brains were removed and dissected to remove the hippocampus. The separated hippocampus was placed in a 20-fold weight of a 0.32 molarity (M) sucrose solution and homogenized with a potter homogenizer. The homogenate was centrifuged at 1000 g at 4° C. for 10 minutes, and the supernatant was further centrifuged at 20000 g at 4° C. for 20 minutes. The pellet was suspended in an incubation buffer (20 mM HEPES buffer (pH 7.4) containing 10 mM glucose, 145 mM sodium chloride, 4.5 mM potassium chloride, 1.2 mM magnesium chloride, and 1.5 mM calcium chloride). The suspension was used as a crude synaptosome fraction.
as §2
as §3, with “unlabeled NE,” for “unlabeled 5-HT,”, “tritium-labeled NE” for “tritium-labeled 5-HT”, “concentration: 12” for “concentration: 8”, “C. Ten” for “C. 10”
as §4, with “NE” for “5-HT”, “50%” for “50%,”

Dopamine (DA) uptake = target: T2, Dopamine (DA) uptake (Rattus norvegicus, UniProt P23977); assay: Dopamine (DA) uptake inhibitory activity using rat brain synaptosome (corpus striatum); settings: tritium-labeled DA 2 nM, 37° C. ten minutes, read-out: 50% Inhibitory concentration
T2 construct: The suspension was used as a crude synaptosome fraction; from tissue; host or cells: rat (male Wistar) corpus striatum, crude synaptosome fraction
Protocol: Measurement of Dopamine (DA) Uptake Inhibitory Activity of Test Compound Using Rat Brain Synaptosome
as §1, with “corpus striatum.” for “frontal cortex.”, “corpus striatum” for “frontal cortex”
Uptake reaction was performed using each well of a 96-well round-bottom plate and a 200 μl volume in total of a solution containing pargyline (final concentration: 10 μM) and ascorbic acid (final concentration: 0.2 mg/mil).
as §3, with “unlabeled DA,” for “unlabeled 5-HT,”, “tritium-labeled DA” for “tritium-labeled 5-HT”, “concentration: 2” for “concentration: 8”, “C. Ten” for “C. 10”
as §4, with “DA” for “5-HT”, “50%” for “50%,”

[2] = read-out: 50% Inhibitory concentration
[3] = tritium-labeled NE 12 nM, 37° C. ten minutes, read-out: 50% inhibitory concentration

T1 sequence (P31652 whole entry): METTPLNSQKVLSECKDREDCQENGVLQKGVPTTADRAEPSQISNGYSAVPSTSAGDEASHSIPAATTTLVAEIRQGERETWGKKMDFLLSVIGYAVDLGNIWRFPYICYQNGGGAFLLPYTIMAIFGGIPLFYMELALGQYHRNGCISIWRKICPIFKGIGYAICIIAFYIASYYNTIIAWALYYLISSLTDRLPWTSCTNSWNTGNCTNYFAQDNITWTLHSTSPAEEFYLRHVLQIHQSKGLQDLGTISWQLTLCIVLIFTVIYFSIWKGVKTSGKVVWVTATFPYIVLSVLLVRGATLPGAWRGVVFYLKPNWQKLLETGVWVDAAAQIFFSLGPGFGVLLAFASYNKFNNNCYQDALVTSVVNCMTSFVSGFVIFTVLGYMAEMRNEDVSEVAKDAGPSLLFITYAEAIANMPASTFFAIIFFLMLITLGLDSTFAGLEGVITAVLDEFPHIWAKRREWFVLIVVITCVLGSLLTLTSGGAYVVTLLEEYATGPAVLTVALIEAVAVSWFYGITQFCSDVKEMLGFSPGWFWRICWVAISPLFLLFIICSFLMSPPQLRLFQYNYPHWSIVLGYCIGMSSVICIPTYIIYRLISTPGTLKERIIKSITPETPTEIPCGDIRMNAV
T2 sequence (P23977 whole entry): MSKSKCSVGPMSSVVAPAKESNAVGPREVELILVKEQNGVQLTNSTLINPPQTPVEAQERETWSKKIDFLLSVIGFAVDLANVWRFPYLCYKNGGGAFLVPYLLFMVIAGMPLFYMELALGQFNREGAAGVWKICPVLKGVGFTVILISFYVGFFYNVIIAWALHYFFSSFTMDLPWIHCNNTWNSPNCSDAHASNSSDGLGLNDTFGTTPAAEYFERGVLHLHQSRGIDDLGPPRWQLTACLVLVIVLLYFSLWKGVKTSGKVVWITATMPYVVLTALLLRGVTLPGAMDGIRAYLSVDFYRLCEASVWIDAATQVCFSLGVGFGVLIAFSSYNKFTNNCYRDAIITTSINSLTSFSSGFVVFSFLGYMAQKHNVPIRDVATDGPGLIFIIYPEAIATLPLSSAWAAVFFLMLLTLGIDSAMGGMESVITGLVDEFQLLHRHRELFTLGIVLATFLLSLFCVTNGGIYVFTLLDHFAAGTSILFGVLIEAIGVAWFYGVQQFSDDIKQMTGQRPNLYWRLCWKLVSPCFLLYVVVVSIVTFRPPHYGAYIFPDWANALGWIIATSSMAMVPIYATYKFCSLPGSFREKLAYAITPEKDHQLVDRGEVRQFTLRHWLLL

Structure (SMILES) | IC50 (Serotonin (5-HT) uptake; [2]) | IC50 [1, 3] | IC50 (Dopamine (DA) uptake) | IC50 (Serotonin (5-HT) uptake; 50% Inhibitory concentration) | IC50 ([1]; read-out: 50% inhibitory concentration, tritium-labeled NE 12 nM, 37° C. ten minutes)
CC1(C)CN(c2ccc(Cl)c(Cl)c2)[C@H]2CCC[C@@H]2N1 (racemic) [Example 15] | 12.5 nM | 11 nM | 68.4 nM | – | –
CC1(C)CN(c2ccc3sccc3c2)[C@H]2CCC[C@@H]2N1 (relative stereo) [Example 13] | 5.1 nM | 14.3 nM | 85.4 nM | – | –
CC1(C)CN(c2ccc(O)c(Cl)c2)[C@H]2CCCC[C@@H]2N1 [Example 918] | 10 nM | 0.8 nM | 42 nM | – | –
C[C@@H]1CN(c2ccc(F)c3occc23)[C@H]2CCCC[C@@H]2N1 [Example 1124] | 7.1 nM | 0.8 nM | 49.3 nM | – | –
Clc1ccc(N2CCN[C@H]3CCCC[C@@H]32)c2ccoc12 [Example 1083] | 5.1 nM | 2.5 nM | 53.7 nM | – | –
CC1(C)CN(c2ccc(F)c3occc23)[C@H]2CCCC[C@H]2N1 [Example 136] | 1.3 nM | 0.5 nM | 7.7 nM | – | –
CC1(C)CN(c2ccc3[nH]c(C#N)cc3c2)[C@@H]2CCCC[C@@H]2N1 [Example 654] | 1.5 nM | 1 nM | 9 nM | – | –
CC1(C)CN(c2ccc3cc(OC(F)F)ccc3c2)[C@H]2CCCC[C@@H]2N1 [Example 867] | 4.7 nM | 11.7 nM | 85.7 nM | – | –
CC1(C)CN(c2ccc(F)c3[nH]ccc23)[C@H]2CCCC[C@@H]2N1 [Example 895] | 5.4 nM | 3 nM | 19.9 nM | – | –
CC1(C)CN(c2ccc3occc3c2)[C@H]2CCCC[C@@H]2N1 [Example 196] | 4.4 nM | 1.7 nM | 18.3 nM | – | –
CC1(C)CN(c2ccc(F)c3occc23)[C@H]2CCCC[C@@H]2N1 [Example 192] | 2.9 nM | 3.6 nM | 8.6 nM | – | –
CC[C@@H]1CN(c2ccc3ccccc3c2)[C@H]2CCCC[C@@H]2N1C (relative stereo) [Example 288] | 56.1 nM | 22 nM | 74.7 nM | – | –
CC1(C)CCN(c2ccc(Cl)c(Cl)c2)[C@@H]2CCCC[C@@H]2N1 (relative stereo) [Example 322] | 9.6 nM | 40.1 nM | 67.7 nM | – | –
CC1(C)CN(c2ccc3cc[nH]c3c2)[C@H]2CCCC[C@H]2N1 [Example 2, (4aR,8aS)-1-(1H-indol-6-yl)-3,3-dimethyldecahydroquinoxaline] | 7.1 nM | 4.6 nM | 85.9 nM | – | –
CC1(C)CN(c2cc(Cl)c3occc3c2)[C@H]2CCCC[C@@H]2N1 [Example 884] | 7.3 nM | 4.8 nM | 52.8 nM | – | –
C[C@@H]1CN(c2cccc3ccsc23)[C@@H]2CCCC[C@@H]2N1 (relative stereo) [Example 1113] | 5.4 nM | 1.7 nM | 26 nM | – | –
CC1(C)CN(c2ccc3sccc3c2)[C@H]2CCCCC[C@@H]2N1 (relative stereo) [Example 348] | 6.4 nM | 4.6 nM | 27.3 nM | – | –
COc1cc2ccc(N3CC(C)(C)N[C@@H]4CCCC[C@H]43)cc2cc1C#N [Example 962] | 18.7 nM | 31.9 nM | 69.5 nM | – | –

Structure (SMILES) | IC50 (Serotonin (5-HT) uptake; [2]) | IC50 [1, 3] | IC50 (Dopamine (DA) uptake) | IC50 (Serotonin (5-HT) uptake; 50% Inhibitory concentration) | IC50 ([1]; read-out: 50% inhibitory concentration, tritium-labeled NE 12 nM, 37° C. ten minutes)
CC1(C)CN(c2ccc3cc(O)ccc3c2)[C@H]2CCCC[C@@H]2N1 [Example 850] | 7.3 nM | 1 nM | 7 nM | – | –
CN1[C@@H]2CCCC[C@@H]2N(c2cccc3occc23)CC1(C)C [Example 132] | 8.8 nM | 3.1 nM | 3.9 nM | – | –
CC1(C)CN(c2cccc3ccccc23)[C@H]2CCCC[C@H]2N1 [Example 118] | 13.7 nM | 3.7 nM | 8.3 nM | – | –
CC1(C)CN(c2ccc3ncsc3c2)[C@H]2CCCC[C@@H]2N1 (racemic) [Example 405] | 6.4 nM | 4.4 nM | 74.8 nM | – | –
CC1(C)CN(c2cccc3[nH]ccc23)[C@@H]2CCCC[C@@H]2N1 [Example 85] | 7.2 nM | 4.9 nM | 95.7 nM | – | –
CC1(C)CN(c2ccc(F)c3ccccc23)[C@H]2CCCC[C@@H]2N1 (relative stereo) [Example 409] | 35.6 nM | 9.1 nM | 165 nM | – | –
CC1(C)CN(c2csc3ccccc23)[C@@H]2CCCC[C@@H]2N1 [Example 717] | 4.2 nM | 4.8 nM | 60.1 nM | – | –
CN1[C@@H]2CCCC[C@@H]2N(c2cccc3sccc23)CC1(C)C [Example 125] | 4.7 nM | 1.9 nM | 5.2 nM | – | –
Clc1ccc(N2CC3(CCC3)N[C@H]3CCCC[C@H]32)cc1 [Example 276] | 7.2 nM | 4.5 nM | 10.9 nM | – | –
CC1(C)CN(c2ccc3sccc3c2)[C@@H]2CCCCC[C@@H]2N1 (racemic) [Example 344] | 6.8 nM | 7.5 nM | 9.8 nM | – | –
CC1(C)CN(c2ccc(O)cc2)[C@H]2CCCC[C@H]2N1 [Example 805] | 42.6 nM | 30.4 nM | 83.8 nM | – | –
CC1(C)CN(c2cc(F)cc3ccsc23)[C@@H]2CCCC[C@@H]2N1 [Example 621] | – | – | 128 nM | 7 nM | 0.7 nM
COc1cc2ccc(N3CC(C)(C)N[C@H]4CCCC[C@H]43)cc2cc1C#N [Example 610] | 4.6 nM | 5.9 nM | 13.2 nM | – | –
CC1(C)CN(c2ccc3sccc3c2)C2COCC2N1 (stereo not drawn) [Example 8] | 2.4 nM | 60.9 nM | 378 nM | – | –
c1cc(N2CC3(CCC3)N[C@H]3CCCC[C@@H]32)c2ccoc2c1 [Example 1047] | 0.7 nM | 0.7 nM | 1.1 nM | – | –
CC1(C)CN(c2cccc3occc23)[C@H]2CCCC[C@H]2N1 [Example 131] | 6.1 nM | 0.7 nM | 8.3 nM | – | –
CC1(C)CN(c2csc3ccccc23)[C@H]2CCCC[C@H]2N1 [Example 841] | 28.1 nM | 0.9 nM | 5.1 nM | – | –
CC1(C)CN(c2cc(F)c(F)c3occc23)[C@@H]2CCCC[C@@H]2N1 [Example 580, (4aS,8aR)-1-(6,7-difluorobenzofuran-4-yl)-3,3-dimethyldecahydroquinoxaline hydrochloride] | 2.5 nM | 5.4 nM | 202 nM | – | –

From US11273168B2, “Methods of treating anxiety by administering a substituted quinolone” (OTSUKA PHARMACEUTICAL CO., LTD., priority 2010, dated 2022)
